Columns and labels:
4T1 luc+ breast tumor = assay: 4T1 breast tumor metastasis model: LTI (3 daily doses of 20 Gy), CY and cryopreserved autologous T cells; format: in vivo, BALB/c mice; settings: 21 day 4T1 tumors; 3 daily doses of 20 Gy LTI, then single dose of CY
Experimental: Irradiation. […] For local tumor irradiation, unanesthetized mice were placed in lead jigs through which established tumors in the hind quarter were protruded for irradiation to an area of approximately 2 cm diameter. Irradiation was performed with a Phillips X-ray unit operated at 200 kV with the dose rate of 1.21 Gy/min (20 mÅ with added filtration of 0.5 mm copper, the distance from X-ray source to the target of 31 cm, and a half value layer of 1.3 mm copper).
Enriched cells were stained with anti-TCR-allophycocyanin (APC) and anti-CD4 or anti-CD8-fluorescein isothiocyanate (FITC) mAbs to check for purity, and preparations were uniformly at least 95% pure.
FACS Aria (Becton Dickinson, Mountain View, Calif.) was used for analysis with FlowJo software (TreeStar, Ashland, Oreg.). After sorting cells were checked by FACS reanalysis and determined to be >99% pure. Collected T cells were cryopreserved with 10% DMSO and frozen in liquid nitrogen.
In vivo BLI imaging. In vivo BLI was performed according to the method of Edinger et al. Briefly, mice were injected intraperitoneally with luciferin (10 μg/g body weight). Ten minutes later, mice were imaged using an IVIS100 charge-coupled device imaging system (Xenogen) for 5 minutes. Imaging data were analyzed and quantified with Living Image software (Xenogen).

CT26 tumors = assay: Survival of CT26 tumor-bearing RAG-2-/- mice given 30 Gy LTI with or without CY and T cells; format: in vivo, BALB/c RAG2-/- mice; settings: 30 Gy LTI at day 21
Experimental: Animals. Wild-type male BALB/c (H-2^d) mice, and male BALB/c RAG2^−/− mice, were purchased from Jackson Laboratories (Bar Harbor, Me.). Mice were 5-8 weeks old.
Irradiation. Total body irradiation was performed with a Philips X-ray unit (200 kV, 10 mA; Philips Electronic Instruments Inc., Rahway, N.J.) at a rate of 84 cGy/min with a 0.5 mm Cu filter. For local tumor irradiation, unanesthetized mice were placed in lead jigs through which established tumors in the hind quarter were protruded for irradiation to an area of approximately 2 cm diameter. Irradiation was performed with a Phillips X-ray unit operated at 200 kV with the dose rate of 1.21 Gy/min (20 mÅ with added filtration of 0.5 mm copper, the distance from X-ray source to the target of 31 cm, and a half value layer of 1.3 mm copper).
Cell preparation, splenectomy, and collection of T cells for autologous transplantation. Single cell suspensions of bone marrow and spleen were prepared according to previously described procedures. […]
FACS Aria (Becton Dickinson, Mountain View, Calif.) was used for analysis with FlowJo software (TreeStar, Ashland, Oreg.). After sorting cells were checked by FACS reanalysis and determined to be >99% pure. […]

CT26 luc+ tumor cells = assay: Bioluminescence imaging of luciferase transduced CT26 tumors in RAG2-/- mice given LTI and CY with or without T cells; set-up: species or system BALB/c RAG2-/- mice; settings: mouse, in vivo
Excerpt: Cell lines. The CT26 cell line (an N-nitro-N-methylurethane-induced BALB/c murine colon carcinoma) was purchased from ATCC (Manassas, Va.). The 4T1 cell line (spontaneously arising) was also obtained from ATCC. The 4T1-LUC/GFP and CT26-LUC/GFP cell lines were lentiviraly transduced. The lentiviral vector pHR-IG was made by Dr. Yoshitaka Akagi. The GFP-firefly luciferase fusion (GLF) gene was subcloned from pJW.GFP-yLuc (kindly provided by Dr. M. H. Bachmann) into pHR2 to generate pHR2-GLF. Lentiviral particles expressing GLF were prepared as described before. […]. WT 4T1 and CT26 cells were seeded in a 6 well plate at 0.25×10^6 cells/well and incubated overnight in a 37° C. incubator. Titrated virus was then used to transduce the cell lines in the presence of protamine sulfate (10 μg/ml) to enhance transduction efficiency. Stable lentiviral transductants were then sorted 4 times for GFP fluorescence (100% purity) using a FACS DIVA cell sorter. Sorted cells were expanded and screened for bioluminescence using an Xenogen IVIS spectrum (Caliper Life Sciences; Hopkinton, Mass.), as well as GFP. Cell lines were maintained in RPMI-1640 complete medium supplemented with 10% fetal calf serum, L-glutamine, 2 mercaptoethanol, streptomycin and penicillin.
In vivo BLI imaging. In vivo BLI was performed according to the method of Edinger et al. Briefly, mice were injected intraperitoneally with luciferin ([…]). Ten minutes later, mice were imaged using an IVIS100 charge-coupled device imaging system (Xenogen) for 5 minutes. Imaging data were analyzed and quantified with Living Image software (Xenogen).

O=P1(N(CCCl)CCCl)NCCCO1 (stereo not shown) [CY, cyclophosphamide]
mice died by day 84 (4T1 luc+ breast tumor): 6 of 8
mice relapsed at day 98 (4T1 luc+ breast tumor): 1
tumor growth (4T1 luc+ breast tumor): progression of tumor growth was slowed
survival (none of the mice survived beyond) (CT26 tumors): ≤ 80 days
day by which all of the mice died (CT26 luc+ tumor cells): ≤ 107
death or survival of mice by day 35 (CT26 luc+ tumor cells): 2 of 5
tumor signal / tumor growth by BLI (CT26 luc+ tumor cells): continued tumor growth
